From the METLIN SMRT retention time set (Domingo-Almenara et al. 2019)

Experiment: gradient 5% acetonitrile 3 min, to 50% in 2 min, to 85% in 15 min, held 3 min, 100 µL/min
Conditions: column: Zorbax Extend-C18 2.1 x 50 mm; eluents: water / acetonitrile, 0.1% formic acid
How it was run: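 Retention times of pure standards were taken from adduct peaks that were selected by computer and manually inspected. Over 3 months, mixtures of ~100 molecules were run by HPLC–quadrupole time-of-flight mass spectrometry in positive and negative ionization mode. The Zorbax Extend-C18 column (2.1 × 50 mm, 1.8 μm) ran at 100 μL/min in water and acetonitrile, each containing 0.1% formic acid, with 40 μL dead volume and 900 μL dwell volume.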

For `COc1ccc(-c2c(C)noc2NC(C)=O)cc1S(=O)(=O)Nc1ccc(S(N)(=O)=O)cc1`, the RP-LC retention time was 636 s.
Compound `O=C(Nc1ccc(N2CCN(c3ccccc3)C2=O)nc1)c1cc(F)cc(F)c1` has an RP-LC retention time of 1020 s.
Work on `CCc1ccccc1NC(=O)N1CCC2(CC1)NC(=O)c1ccccc1N2CC` yielded an RP-LC retention time of 797 s.
Work on `Cc1cc(NC(=O)N2CCC(CN3CCCC(C)C3)CC2)ccc1Br` (configuration not stated) yielded an RP-LC retention time of 682 s.
Compound `O=C(c1csc(-c2ccc(N3CCCC3)nc2)n1)N1CCCC1` has an RP-LC retention time of 596 s.
Work on `COc1ccc(N2C(=O)NC3CC2(C)Oc2ccc(OC)cc23)cc1` (configuration not stated) yielded an RP-LC retention time of 765 s.
With `Cc1cc(C)cc(NC(=O)NC2CCN(c3ccccc3)C2=O)c1` (configuration not stated) the RP-LC retention time was 697 s.
`COCC1CN(C(=O)CN2CCCC2=O)CCC1(F)F` (configuration not stated) gave an RP-LC retention time of 598 s.
For `Cc1ccc(N2CCN(c3ncc(C(=O)O)c(C)n3)CC2)cc1`, the RP-LC retention time was 863 s.
Compound `COc1ccc(NC(=O)C2CCN(c3cc(N4CCSCC4)ncn3)CC2)cc1OC` has an RP-LC retention time of 627 s.
`Clc1ccc(-c2nc(N3CCCCC3)c3ccccc3n2)cc1` gave an RP-LC retention time of 818 s.
`CCn1nc(C(=O)Nc2nc3c(s2)CCc2ccccc2-3)cc1C` showed an RP-LC retention time of 1060 s.
For `CCn1cc(-c2ccc(Cl)cc2)cc1C(=O)NCC1CCCO1` (configuration not stated), the RP-LC retention time was 1010 s.
`CCOC(=O)c1ccc(NC(=O)Cc2csc3nc(-c4ccc(C)c(C)c4)cn23)cc1` showed an RP-LC retention time of 922 s.
In the case of `CCOC(=O)c1cc2c([nH]c1=O)CC(c1cccc(C)c1)CC2=O` (configuration not stated), the RP-LC retention time is reported as 653 s.
`CC(C)N1CCC(c2nnc3n2CCN(S(=O)(=O)c2ccc(C(F)(F)F)cc2)C3)C1` (configuration not stated) gave an RP-LC retention time of 650 s.
Work on `Cn1cccc1C(CNS(=O)(=O)c1ccc(F)c(Cl)c1)N1CCOCC1` (configuration not stated) yielded an RP-LC retention time of 575 s.
`Cc1noc2ncnc(N3CCCC(C(=O)N4CCCc5ccccc54)C3)c12` (configuration not stated) showed an RP-LC retention time of 878 s.
In the case of `O=C(Cn1ccc2ccc(N3CCOCC3)nc21)NCC1CCCCC1`, the RP-LC retention time is reported as 924 s.
`c1ccc(-c2nc(CSc3ccc(-n4cccn4)nn3)cs2)cc1` showed an RP-LC retention time of 1020 s.
`CCC(CC)CN1CCC(n2c(C)cnc2-c2cccnc2)C1` (configuration not stated) gave an RP-LC retention time of 545 s.
With `O=C1NCCCn2cc(S(=O)(=O)N3CCN(c4ccccn4)CC3)cc21` the RP-LC retention time was 550 s.
With `Cc1cccc(C(=O)NCc2ccc3c(c2)nnn3C)c1` the RP-LC retention time was 700 s.
`O=C(c1ccc(Nc2nn3c(=O)c4ccccc4nc3s2)cc1)N1CCN(c2ccccn2)CC1` showed an RP-LC retention time of 622 s.
For `Cc1c(-c2noc(-c3ccccc3F)n2)nnn1Cc1ccc(F)cc1`, the RP-LC retention time was 1030 s.
For `CCOC(=O)c1c(C)[nH]c(C(=O)N2CCCC(C(=O)NCCCc3ccccc3)C2)c1C` (configuration not stated), the RP-LC retention time was 867 s.
For `COc1cccc(CCc2nc(-c3ccc4oc(C)nc4c3)no2)c1`, the RP-LC retention time was 1030 s.
Work on `O=C(Nc1ccc(NC(=O)N2CCC(C(=O)NCC3CC3)CC2)cc1)NC1CCCC1` yielded an RP-LC retention time of 679 s.
Work on `CC(C)c1csc(-c2csc(S(=O)(=O)Nc3ccc(Br)cc3F)c2)n1` yielded an RP-LC retention time of 1200 s.
Work on `Cc1ccc2nc(NC(=O)CSc3nnc(C4COc5ccccc5O4)o3)sc2c1` (configuration not stated) yielded an RP-LC retention time of 866 s.
With `COCCN1CCC(N2CCN(S(=O)(=O)c3ccc(F)cc3F)CC2)C1=O` (configuration not stated) the RP-LC retention time was 570 s.
Work on `CCC1(C(=O)NCc2ccc(C)cc2)CCCCC(=O)N1` (configuration not stated) yielded an RP-LC retention time of 707 s.
With `O=C(NCc1cccnc1)C(=O)NCc1ccc2c(c1)OCO2` the RP-LC retention time was 588 s.
In the case of `Cc1ccc(-c2cn3c(n2)N(C(=O)c2cnn4cccnc24)CCC3)cc1`, the RP-LC retention time is reported as 613 s.
`c1csc(-c2nc(-c3ccc4c(c3)ncn4CCN3CCCC3)no2)c1` showed an RP-LC retention time of 614 s.
With `O=C(O)c1cn(Cc2ccccc2F)c(=O)c2ccccc12` the RP-LC retention time was 801 s.
`Cc1ccc(Sc2nccnc2N2CCCC(C(=O)Nc3ccc(C)c(C)c3)C2)cc1` (configuration not stated) showed an RP-LC retention time of 1290 s.
With `CCCCn1c(=O)c2ccccc2n(Cc2nc(-c3ccc(C(F)(F)F)cc3)no2)c1=O` the RP-LC retention time was 1260 s.
For `CN1C(=O)C2CCCCN2c2ccc(C(=O)NCCC3=CCCCC3)cc21` (configuration not stated), the RP-LC retention time was 993 s.
`Cc1ccc(NC(=O)Cn2c(C)cc(-c3nnc(C)o3)c2C)c(Cl)c1` gave an RP-LC retention time of 835 s.
`CCNC(=O)c1ccc(N2CCc3ccccc32)s1` showed an RP-LC retention time of 824 s.
Compound `CCc1ccc(-n2c(CN3CCN(C(=O)NCC4CCCO4)CC3)nc3cccnc32)cc1` (configuration not stated) has an RP-LC retention time of 636 s.
Compound `Cc1nc(N2CCN(C(c3ccccc3)c3ccccc3)CC2)nc2c1C(=O)CC(c1cccs1)C2` (configuration not stated) has an RP-LC retention time of 1150 s.
`Cc1noc(C)c1CCC(=O)N1CCCC1CCc1ncc(C)n1CC1CC1` (configuration not stated) showed an RP-LC retention time of 662 s.
`CCC(=O)Nc1nc(-c2ccc3c(c2)NC(=O)CO3)cs1` showed an RP-LC retention time of 704 s.
Work on `COc1ccccc1CNC(=O)CN1CCN(Cc2ccc(F)cc2)C(=O)C1=O` yielded an RP-LC retention time of 732 s.
With `COc1ccccc1-c1nnc(-c2ccc(-n3ccnc3)nc2)o1` the RP-LC retention time was 614 s.
`O=S(=O)(NC1CCCCC1)c1ccc(-c2cc(C(F)(F)F)on2)o1` showed an RP-LC retention time of 1120 s.
`CN(C)c1ccc2c(c1)CN(C(=O)c1cc(C3CC3)[nH]n1)CCO2` showed an RP-LC retention time of 588 s.
Work on `O=C(c1cccs1)N1CCN(c2ccc(-c3noc(C4CCC4)n3)cc2)CC1` yielded an RP-LC retention time of 1070 s.
In the case of `Cc1cc2c(N3CCCC(C(=O)N4CCN(c5ccccc5F)CC4)C3)nccc2s1` (configuration not stated), the RP-LC retention time is reported as 755 s.
Compound `O=C(Cn1cccc1-c1nnc(C2CC2)o1)NCc1ccc(Cl)cc1` has an RP-LC retention time of 825 s.
`O=C(CN1CCc2ccccc2C1C(=O)N1CCCCC1)NCc1cccc(Cl)c1` (configuration not stated) showed an RP-LC retention time of 913 s.
`CC(=O)/C=C1\C(=O)N(C)c2ccccc21` showed an RP-LC retention time of 858 s.
For `Cc1ccc(C)c(Cn2nc(-c3nc(C)no3)ccc2=O)c1`, the RP-LC retention time was 916 s.
Compound `CCOC(=O)CNC(=O)Nc1cc(F)c2nc(N3CCCC3)ccc2c1` has an RP-LC retention time of 590 s.
`Cc1ccc(Nc2ncccc2S(N)(=O)=O)cc1Cl` showed an RP-LC retention time of 924 s.
For `O=C(NCc1ccccc1)C1CCN(C(=O)c2ncn3c2COC(c2ccc(Cl)cc2)C3)CC1` (configuration not stated), the RP-LC retention time was 760 s.
`CCC1CN(C(=O)N2CCC(C(=O)NCc3ccco3)CC2)c2cc(C)ccc2O1` (configuration not stated) gave an RP-LC retention time of 872 s.
`COC(=O)c1cc(C2CC2)nc2c1c(=O)n(Cc1ccc(F)cc1)c(=O)n2C` showed an RP-LC retention time of 1090 s.
Work on `CCn1cnc(S(=O)(=O)N2CCCC(C(=O)NCc3cccc(C)c3)C2)c1` (configuration not stated) yielded an RP-LC retention time of 747 s.
`O=C(COc1ccccc1)Nc1cnc(N2CCCCC2)nc1` gave an RP-LC retention time of 919 s.
`CCN1C(=O)C2(CCN(C(=O)c3ccnn3CC)CC2)c2ccccc21` showed an RP-LC retention time of 789 s.
In the case of `CC(C)NC(=O)c1ccc2c(c1)CCCN2S(=O)(=O)c1ccccc1`, the RP-LC retention time is reported as 878 s.
Work on `COc1ccc(OC)c(CNC(=O)c2cn3c(n2)COCC3)c1` yielded an RP-LC retention time of 639 s.
`CC(=O)NCc1c(-c2ccc(Cl)cc2)nc2n1CCS2` showed an RP-LC retention time of 568 s.
In the case of `COc1ccc(-c2ccnc3nc(CCc4ccccc4)nn23)c(F)c1`, the RP-LC retention time is reported as 963 s.
With `Cc1nc(-c2ccc(S(=O)(=O)N3CCN(c4ccc(N5CCOCC5)nn4)CC3)cc2)co1` the RP-LC retention time was 644 s.
Work on `Cc1csc(-c2cc(S(=O)(=O)NCc3ccc(C(C)C)cc3)cn2CC(=O)N2CCCC2)n1` yielded an RP-LC retention time of 1030 s.
Work on `O=C(c1noc2ccc(S(=O)(=O)N3CCCc4ccccc43)cc12)N1CCCCC1` yielded an RP-LC retention time of 1090 s.
In the case of `CCn1cnc2ccc(-c3noc(-c4cccc(Cl)c4)n3)cc21`, the RP-LC retention time is reported as 861 s.
Compound `O=C(NCC1CCCO1)c1ccccc1NC(=O)C1CCN(C(=O)c2ccc(F)cc2)CC1` (configuration not stated) has an RP-LC retention time of 762 s.
`CC(=O)N1c2ccc(S(=O)(=O)N3CCCC3)cc2CC1C(=O)NCCN(C)Cc1ccccc1` (configuration not stated) gave an RP-LC retention time of 619 s.
For `Cc1cc(C)cc(NC(=O)c2[nH]c(C)c(S(=O)(=O)N3CCCC3)c2C)c1`, the RP-LC retention time was 950 s.
`COCCNC(=O)Cc1csc(SCC(=O)c2cccs2)n1` gave an RP-LC retention time of 669 s.
Compound `O=C(Nc1nc2c(s1)CN(S(=O)(=O)C1CC1)CC2)c1cnn(-c2ccccc2)n1` has an RP-LC retention time of 855 s.
`COc1ccc(SCCCC(=O)Nc2cccc(C)c2C)cc1` gave an RP-LC retention time of 906 s.
In the case of `CN(C)c1nc2ncn3c(=O)n(CC(=O)NCc4ccccc4Cl)nc3c2s1`, the RP-LC retention time is reported as 686 s.
For `CC(=O)c1ccc(NC(=O)C2CC(=O)N(c3ccc4oc(C)nc4c3)C2)cc1` (configuration not stated), the RP-LC retention time was 685 s.
With `O=C(NCCc1c[nH]c2ccccc12)c1cc2cccnc2n(Cc2ccccc2F)c1=O` the RP-LC retention time was 1080 s.
For `Cc1cccc(N2C(=O)CN(Cc3ccccc3C)[C@H]3CS(=O)(=O)C[C@H]32)c1`, the RP-LC retention time was 872 s.
`CCc1cc(C(=O)N2CCOCC2)nc2cc(-c3cccs3)nn12` showed an RP-LC retention time of 838 s.
In the case of `O=C(c1ccc(-c2ccsc2)nc1)N1CCN(c2ccccc2)CC1`, the RP-LC retention time is reported as 909 s.
Compound `COc1ccc(N2CCN(c3cc(SCC(=O)Nc4cccc(C#N)c4)ncn3)CC2)cc1` has an RP-LC retention time of 895 s.
For `O=c1c2ccccc2nc2n1CCC2O` (configuration not stated), the RP-LC retention time was 567 s.
With `Cc1ccc(S(=O)(=O)N2CCC(C(=O)NCc3cscn3)CC2)cc1C` the RP-LC retention time was 748 s.
In the case of `COc1cccc2sc(N(C)CC(=O)NCCc3cccs3)nc12`, the RP-LC retention time is reported as 772 s.
With `O=C(O)c1ccc(OCC(=O)C2CC2)cc1` the RP-LC retention time was 636 s.
`Cn1nc2n(c1=O)CCN(C(=O)c1ccsc1)CC2` showed an RP-LC retention time of 570 s.
With `CN1CCN(CCNC(=O)c2cc(-c3ccccc3)cn2C)CC1` the RP-LC retention time was 600 s.
In the case of `O=C(NCc1cccc(F)c1)c1ccc2c(c1)Sc1ncccc1C(=O)N2C1CC1`, the RP-LC retention time is reported as 823 s.
`Cc1ccc(-c2noc(Cn3nc(-c4ccccc4F)ccc3=O)n2)cc1` gave an RP-LC retention time of 1050 s.
